Like-named read-outs stand apart in the source and are kept apart here.
What was measured:
[1] = tested on: Axin2 accumulation in SW480 cells; assay: Axin2 384 immunofluorescence assay; type: cell-based; conditions: Homo sapiens, read-out: Axin2 384 IF EC50
[2] = tested on: 8×TCF promoter-driven Firefly luciferase (Wnt reporter) in DLD-1 colorectal cells; assay: DLD-1-STF assay, constitutively activated Wnt pathway reporter; type: cell-based; conditions: Homo sapiens
Method: DLD-1 colorectal cells engineered with an 8×TCF promoter-driven Firefly (FF) luciferase gene (Wnt reporter) along with an EF1a promoter-driven Renilla (RN) luciferase gene (control reporter) were used to measure the potency of tankyrase compounds in the context of the constitutively activated Wnt pathway due to mutated APC in colorectal cancer cells. The engineered DLD-1 cells were plated (45 μL) at a density of 10,000 cells/well in black, clear-bottom, 96-well View plates (PerkinElmer) in normal growth medium (RPMI with 10% FBS with no antibiotics). Tankyrase inhibitors (5 μL) were transferred to cells from a three-fold serially diluted compound plate. A 10-point dilution series was tested starting at a concentration (10 μM final concentration in assay). Column 6 contained only DMSO and served as the “HI” control. A potent Tankyrase inhibitor was used at a final concentration of 10 uM in column 12 which served as the “LO” control. […] The Dual-Glo Reagents (Promega) were added as directed by manufacturer to assay the FF and RN luciferase activity. Luciferase activity was measures using the EnVision multilabel plate reader (PerkinElmer).

[3] = tested on: total β-catenin in SW480 colorectal cells; assay: Total β-catenin MSD 96-well plate assay for SW480 cells; conditions: Homo sapiens, SW480, read-out: SW480-Total beta-catenin (TBC) IC50 IP
[4] = biological target: 6×HIS-tankyrase1 (1091-1325) (Homo sapiens (Human), UniProt O95271); assay: Tankyrase 1 biochemical assay (AlphaLisa, PARsylation); conditions: 400 nM NAD, 60 minutes at RT; read-out: TNKS1 IC50
[5] = biological target: 6×HIS-tankyrase 2 (946-1162) (Homo sapiens (Human), UniProt Q9H2K2); assay: Tankyrase 2 biochemical assay (AlphaLisa, PARsylation); conditions: 250 nM NAD; read-out: TNKS2 IC50
[6] = biological target: PARP1 (Homo sapiens (Human), UniProt P09874); assay: PARP1 biochemical assay (Trevigen kit)
Excerpt: PARP1 biochemical assay was purchased as a kit from Trevigen (cat.#4676-096-K) and used per manufacturers recommendations.

[7] = biological target: PARP2 (Homo sapiens (Human), UniProt Q9UGN5); assay: PARP2 biochemical assay (BPS kit)
[8] = DLD-1, read-out: DLD1-STF-FF/RL*100 IC50

Chain of PARP1 (P09874 whole entry): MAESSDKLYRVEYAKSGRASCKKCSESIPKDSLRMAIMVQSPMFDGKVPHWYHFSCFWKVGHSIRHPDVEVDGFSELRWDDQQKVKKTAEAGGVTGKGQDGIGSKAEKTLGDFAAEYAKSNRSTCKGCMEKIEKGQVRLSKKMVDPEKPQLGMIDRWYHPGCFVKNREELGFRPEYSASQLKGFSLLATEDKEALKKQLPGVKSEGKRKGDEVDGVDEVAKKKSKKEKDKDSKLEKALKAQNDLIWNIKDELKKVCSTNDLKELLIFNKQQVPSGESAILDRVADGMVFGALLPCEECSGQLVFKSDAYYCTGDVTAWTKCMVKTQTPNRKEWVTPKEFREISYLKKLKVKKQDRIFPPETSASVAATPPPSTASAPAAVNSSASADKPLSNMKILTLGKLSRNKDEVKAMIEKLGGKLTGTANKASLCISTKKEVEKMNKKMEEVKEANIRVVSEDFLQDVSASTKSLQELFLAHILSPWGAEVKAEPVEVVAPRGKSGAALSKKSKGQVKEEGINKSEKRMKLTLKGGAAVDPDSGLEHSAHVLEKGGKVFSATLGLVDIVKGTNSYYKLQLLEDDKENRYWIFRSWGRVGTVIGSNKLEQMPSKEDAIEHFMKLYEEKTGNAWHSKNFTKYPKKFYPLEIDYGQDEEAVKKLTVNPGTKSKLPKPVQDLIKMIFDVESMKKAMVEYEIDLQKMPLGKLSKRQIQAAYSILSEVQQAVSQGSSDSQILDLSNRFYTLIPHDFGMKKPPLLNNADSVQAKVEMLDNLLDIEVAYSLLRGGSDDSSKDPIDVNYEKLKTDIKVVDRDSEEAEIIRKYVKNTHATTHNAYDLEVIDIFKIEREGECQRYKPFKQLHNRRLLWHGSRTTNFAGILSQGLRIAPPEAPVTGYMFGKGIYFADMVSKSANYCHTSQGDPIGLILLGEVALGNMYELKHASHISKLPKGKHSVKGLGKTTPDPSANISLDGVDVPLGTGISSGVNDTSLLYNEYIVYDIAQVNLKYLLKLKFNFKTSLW
Chain of 6×HIS-tankyrase 2 (946-1162) (Q9H2K2 946-1162): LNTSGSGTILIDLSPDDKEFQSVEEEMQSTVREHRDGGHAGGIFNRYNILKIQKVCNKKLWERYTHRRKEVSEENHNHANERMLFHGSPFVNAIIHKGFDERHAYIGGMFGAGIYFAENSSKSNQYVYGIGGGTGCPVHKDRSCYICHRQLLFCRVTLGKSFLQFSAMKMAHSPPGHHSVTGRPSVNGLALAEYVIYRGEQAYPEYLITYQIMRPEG
Chain of 6×HIS-tankyrase1 (1091-1325) (O95271 1091-1325): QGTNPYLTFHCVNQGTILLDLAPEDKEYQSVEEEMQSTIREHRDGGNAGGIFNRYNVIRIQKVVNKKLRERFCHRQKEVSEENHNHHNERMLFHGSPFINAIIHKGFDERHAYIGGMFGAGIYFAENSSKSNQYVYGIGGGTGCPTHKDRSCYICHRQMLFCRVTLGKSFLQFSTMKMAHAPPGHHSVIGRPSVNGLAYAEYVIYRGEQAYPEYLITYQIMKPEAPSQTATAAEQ
Chain of PARP2 (Q9UGN5 whole entry): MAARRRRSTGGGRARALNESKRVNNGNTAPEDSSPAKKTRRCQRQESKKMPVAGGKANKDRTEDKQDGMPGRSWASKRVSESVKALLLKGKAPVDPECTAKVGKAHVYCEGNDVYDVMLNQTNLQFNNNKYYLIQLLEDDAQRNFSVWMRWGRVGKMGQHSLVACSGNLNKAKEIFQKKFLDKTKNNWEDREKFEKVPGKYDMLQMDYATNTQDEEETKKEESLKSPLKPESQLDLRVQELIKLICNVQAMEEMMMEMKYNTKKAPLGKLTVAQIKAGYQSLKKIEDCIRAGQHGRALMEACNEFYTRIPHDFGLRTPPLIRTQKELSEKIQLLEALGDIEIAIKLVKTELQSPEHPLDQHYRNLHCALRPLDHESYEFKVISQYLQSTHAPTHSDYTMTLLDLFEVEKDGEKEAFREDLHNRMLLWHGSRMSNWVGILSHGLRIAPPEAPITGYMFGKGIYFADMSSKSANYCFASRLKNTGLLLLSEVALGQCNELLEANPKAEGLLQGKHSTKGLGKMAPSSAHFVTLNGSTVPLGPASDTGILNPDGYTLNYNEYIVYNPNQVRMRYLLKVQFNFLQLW

Row | SMILES | EC50 ([1]; SW480, 24 h) [nM] | IC50 ([2]; DLD-1 cells, 40 to 48 hours, read-out: DLD1-STF-FF/RL*100 IC50) [nM] | IC50 [3] [nM] | IC50 [4] [nM] | IC50 [5] [nM] | EC50 ([1]; SW480 cells, 24 hours) [nM] | IC50 [6] [nM] | IC50 [7] [nM] | IC50 [2, 8] [nM]
1 | O=C(CCCc1nc2ccccc2c(=O)[nH]1)N[C@H]1CC[C@H](n2c(=O)[nH]c3cc(Cl)ccc32)CC1 [Example 74, N-((1r,4r)-4-(5-chloro-2-oxo-2,3-dihydro-1H-benzo[d]imidazol-1-yl)cyclohexyl)-4-(4-oxo-3,4-dihydroquinazolin-2-yl)butanamide trifluoroacetic acid] | 5.34 | 1.59 | 6.62 |  |  |  |  |  | 
2 | O=C(CCc1nc2ccccc2c(=O)[nH]1)N[C@H]1CC[C@H](n2c(=O)[nH]c3cc(Cl)ccc32)CC1 [Example 85, N-((1r,4r)-4-(5-chloro-2-oxo-2,3-dihydro-1H-benzo[d]imidazol-1-yl)cyclohexyl)-3-(4-oxo-3,4-dihydroquinazolin-2-yl)propanamide] |  |  | 14.1 | 0.524 | 0.227 | 59.7 | > 85000 | 470 | 
3 | O=C(CSc1nc2ccccc2c(=O)[nH]1)N1CCC(c2nnc(-c3ccccc3)o2)CC1 [Example 89, 2-((2-oxo-2-(4-(5-phenyl-1,3,4-oxadiazol-2-yl)piperidin-1-yl)ethyl)thio)quinazolin-4(3H)-one] |  |  | 1710 | 16.6 | 6.33 | 2330 | 1390 | 350 | 
4 | Nc1cc(=O)[nH]c(SCCC(=O)N[C@H]2CC[C@H](c3nnc(-c4ccccc4)o3)CC2)n1 [Example 91, 3-((4-amino-6-oxo-1,6-dihydro-2-pyrimidinyl)sulfanyl)-N-(trans-4-(5-phenyl-1,3,4-oxadiazol-2-yl)cyclohexyl)propanamide] |  |  | 1680 | 3.97 | 8.78 | 1020 | > 85000 | > 170000 | 
5 | O=C(CCSCc1nc2ccccc2c(=O)[nH]1)N[C@H]1CC[C@H](c2nnc(-c3ccccc3)o2)CC1 [Example 92, 3-(((4-oxo-3,4-dihydro-2-quinazolinyl)methyl)sulfanyl)-N-(trans-4-(5-phenyl-1,3,4-oxadiazol-2-yl)cyclohexyl)propanamide] |  |  | 145 | 15.8 | 4.44 | 287 | 2270 | 2420 | 
6 | O=C(CCSCc1nc2ccccc2c(=O)[nH]1)N1CCC(c2nnc(-c3ccc(F)cc3)o2)CC1 [Example 93, 2-(((3-(4-(5-(4-fluorophenyl)-1,3,4-oxadiazol-2-yl)-1-piperidinyl)-3-oxopropyl)sulfanyl)methyl)-4(3H)-quinazolinone] |  |  | 1200 | 95.2 | 85.1 | 1230 | 8290 | > 170000 | 
7 | O=C(CCSc1nc2ccccc2c(=O)[nH]1)N[C@H]1CC[C@H](c2nnc(-c3ccccc3)o2)CC1 [Example 97, 3-((4-oxo-3,4-dihydroquinazolin-2-yl)thio)-N-(trans-4-(5-phenyl-1,3,4-oxadiazol-2-yl)cyclohexyl)propanamide] |  |  | 3.69 |  |  | 3.88 |  | 2450 | 0.608
8 | O=C(CCc1nc2ccccc2c(=O)[nH]1)N1CCC(c2nnc(-c3ccccc3)o2)CC1 [Example 98, 2-(3-oxo-3-(4-(5-phenyl-1,3,4-oxadiazol-2-yl)piperidin-1-yl)propyl)quinazolin-4(3H)-one] |  |  | 2730 | 161 | 199 | 3990 | 3460 | 806 | 
9 | O=C(CSc1nc2ccccc2c(=O)[nH]1)N[C@H]1CC[C@H](n2c(=O)[nH]c3ccc(Cl)cc32)CC1 [Example 102, N-((1r,4r)-4-(6-chloro-2-oxo-2,3-dihydro-1H-benzo[d]imidazol-1-yl)cyclohexyl)-2-((4-oxo-3,4-dihydroquinazolin-2-yl)thio)acetamide] |  |  | 55.4 | 0.118 | 0.458 | 38.1 | > 85000 | 1650 | 
10 | N#Cc1ccc2c(c1)[nH]c(=O)n2[C@H]1CC[C@H](NC(=O)CCSc2nc3ccccc3c(=O)[nH]2)CC1 [Example 104, N-((1r,4r)-4-(5-cyano-2-oxo-2,3-dihydro-1H-benzo[d]imidazol-1-yl)cyclohexyl)-3-((4-oxo-3,4-dihydroquinazolin-2-yl)thio)propanamide] |  |  | 8.42 | 0.045 | 1.31 | 9.45 | 1350 | 1180 | 
11 | N#Cc1ccc(O[C@H]2CC[C@H](NC(=O)CCSc3nc4ccccc4c(=O)[nH]3)CC2)cc1 [Example 106, N-(trans-4-(4-cyanophenoxy)cyclohexyl)-3-((4-oxo-3,4-dihydroquinazolin-2-yl)thio) propanamide] |  |  | 1.9 |  |  | 4.01 |  | 1760 | 0.275
12 | O=C(CCSc1nc2ccccc2c(=O)[nH]1)N[C@H]1CC[C@H](Oc2ccccn2)CC1 [Example 107, 3-((4-oxo-3,4-dihydroquinazolin-2-yl)thio)-N-((1 r,4r)-4-(pyridin-2-yloxy)cyclohexyl) propanamide] |  |  | 15.4 |  |  | 16.6 | > 85000 | 3350 | 1.33
13 | O=C(CCSc1nc2ccccc2c(=O)[nH]1)N[C@H]1CC[C@H](Oc2ccncc2)CC1 [Example 108, 3-((4-oxo-3,4-dihydroquinazolin-2-yl)thio)-N-((1 r,4r)-4-(pyridin-4-yloxy)cyclohexyl) propanamide] |  |  | 6.9 |  |  | 6.79 | 2760 | 3220 | 0.682
14 | O=C(CCCSc1nc2ccccc2c(=O)[nH]1)N1CCC(c2nnc(-c3ccccc3)o2)CC1 [Example 111, 2-((4-oxo-4-(4-(5-phenyl-1,3,4-oxadiazol-2-yl)piperidin-1-yl)butyl)thio)quinazolin-4(3H)-one] |  |  | > 10000 | 88.4 | 29.5 | 2950 | 7630 | 4670 | 
15 | O=C(CCSc1nc2ccccc2c(=O)[nH]1)N[C@H]1CC[C@H](Oc2cccc(Cl)c2)CC1 [Example 112, N-((1r,4r)-4-(3-chlorophenoxy)cyclohexyl)-3-((4-oxo-3,4-dihydroquinazolin-2-yl)thio) propanamide] |  |  | 120 |  |  | 105 | > 85000 |  | > 50
16 | N#Cc1cc(O[C@H]2CC[C@H](NC(=O)CCSc3nc4ccccc4c(=O)[nH]3)CC2)ccc1Cl [Example 113, N-((1r,4r)-4-(4-chloro-3-cyanophenoxy)cyclohexyl)-3-((4-oxo-3,4-dihydroquinazolin-2-yl)thio)propanamide] |  |  | 24.2 |  |  | 56 | > 85000 |  | > 50
17 | N#Cc1ccc(O[C@H]2CC[C@H](NC(=O)CCSc3nc4ccccc4c(=O)[nH]3)CC2)cc1Cl [Example 114, N-((1r,4r)-4-(3-chloro-4-cyanophenoxy)cyclohexyl)-3-((4-oxo-3,4-dihydroquinazolin-2-yl)thio)propanamide] |  |  | 8.08 |  |  | 8.42 | > 85000 |  | 1.08
18 | N#Cc1ccc(O[C@H]2CC[C@H](NC(=O)CCSc3nc4c(c(=O)[nH]3)CCCC4)CC2)cc1 [Example 116, N-(trans-4-(4-cyanophenoxy)cyclohexyl)-3-((4-oxo-3,4,5,6,7,8-hexahydroquinazolin-2-yl)thio)propanamide] |  |  | 3.79 | 0.167 | 3.13 | 10.7 | 2500 | 319 | 
19 | COc1ccc(-c2nnc([C@H]3CC[C@H](NC(=O)CCSc4nc5ccccc5c(=O)[nH]4)CC3)o2)cc1 [Example 121, N-((1r,4r)-4-(5-(4-methoxyphenyl)-1,3,4-oxadiazol-2-yl)cyclohexyl)-3-((4-oxo-3,4-dihydroquinazolin-2-yl)thio)propanamide] |  |  | 1.1 | 0.0724 | 18.1 | 1.98 | 4430 | 6780 | 
20 | O=C(CCSc1nc2ccccc2c(=O)[nH]1)N[C@H]1CC[C@H](c2nnc(-c3ccc(F)c(Cl)c3)o2)CC1 [Example 122, N-((1r,4r)-4-(5-(3-chloro-4-fluorophenyl)-1,3,4-oxadiazol-2-yl)cyclohexyl)-3-((4-oxo-3,4-dihydroquinazolin-2-yl)thio)propanamide] |  |  | 3.04 | 0.153 | 1.38 | 4.47 | > 9440 | 7690 | 

Source: US9505749B2, “Quinazolinone compounds and derivatives thereof” (AMGEN INC., priority 2012, dated 2016)
